For assay [1], the target named is T1, Interleukin-1 receptor-associated kinase 4 (Homo sapiens, UniProt Q9NWZ3).
T1 sequence (Q9NWZ3 whole entry): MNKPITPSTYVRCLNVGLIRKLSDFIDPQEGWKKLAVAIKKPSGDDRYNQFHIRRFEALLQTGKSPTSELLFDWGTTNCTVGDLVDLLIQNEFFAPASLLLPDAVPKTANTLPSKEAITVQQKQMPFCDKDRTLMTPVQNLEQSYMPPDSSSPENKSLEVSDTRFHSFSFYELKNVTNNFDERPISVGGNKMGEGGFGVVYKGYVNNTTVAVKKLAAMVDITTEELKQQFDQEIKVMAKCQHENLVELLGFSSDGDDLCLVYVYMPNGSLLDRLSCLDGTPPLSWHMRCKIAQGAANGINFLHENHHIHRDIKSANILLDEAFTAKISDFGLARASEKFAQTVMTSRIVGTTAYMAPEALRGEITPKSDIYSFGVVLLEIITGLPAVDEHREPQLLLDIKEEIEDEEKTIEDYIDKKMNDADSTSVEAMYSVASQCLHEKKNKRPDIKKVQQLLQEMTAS
Nature of the assay: Inhibition of recombinant human full-length His-tagged IRAK4 expressed in baculovirus expression system using 5-FAM-IPTSPITTTYFFFKKK-COOH as substrate measured after 240 mins by mobility shift assay.

In assay [2] the target is Protein cereblon/Delta(24)-sterol reductase (Homo sapiens) (UniProt Q15392+Q96SW2). Nature of the assay: Protac activity at CRBN/DHCR24 in LPS-induced human THP1 cells assessed as induction of DHCR24 degradation at 0.1 uM measured after 6 hrs by HPLC-MS based global proteomic analysis relative to control. The assay is classed as cell-based. Particulars: THP-1.
Protein cereblon/Delta(24)-sterol reductase (Homo sapiens), sequence (Q15392 whole entry, looked up): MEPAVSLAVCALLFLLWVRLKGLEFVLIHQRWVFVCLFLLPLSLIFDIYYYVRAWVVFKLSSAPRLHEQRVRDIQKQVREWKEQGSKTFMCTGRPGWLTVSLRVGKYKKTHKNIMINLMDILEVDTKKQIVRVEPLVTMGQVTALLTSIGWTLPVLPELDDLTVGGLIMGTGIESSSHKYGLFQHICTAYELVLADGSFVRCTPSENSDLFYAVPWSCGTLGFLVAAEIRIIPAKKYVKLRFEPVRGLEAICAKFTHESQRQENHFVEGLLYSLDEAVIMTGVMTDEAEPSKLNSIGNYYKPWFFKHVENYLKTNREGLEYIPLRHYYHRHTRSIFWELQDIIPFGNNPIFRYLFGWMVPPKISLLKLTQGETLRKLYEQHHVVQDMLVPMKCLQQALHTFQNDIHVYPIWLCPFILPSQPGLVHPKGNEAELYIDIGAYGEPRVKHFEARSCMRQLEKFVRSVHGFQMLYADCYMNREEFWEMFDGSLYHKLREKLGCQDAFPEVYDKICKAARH
Protein cereblon/Delta(24)-sterol reductase (Homo sapiens), sequence (Q96SW2 whole entry, looked up): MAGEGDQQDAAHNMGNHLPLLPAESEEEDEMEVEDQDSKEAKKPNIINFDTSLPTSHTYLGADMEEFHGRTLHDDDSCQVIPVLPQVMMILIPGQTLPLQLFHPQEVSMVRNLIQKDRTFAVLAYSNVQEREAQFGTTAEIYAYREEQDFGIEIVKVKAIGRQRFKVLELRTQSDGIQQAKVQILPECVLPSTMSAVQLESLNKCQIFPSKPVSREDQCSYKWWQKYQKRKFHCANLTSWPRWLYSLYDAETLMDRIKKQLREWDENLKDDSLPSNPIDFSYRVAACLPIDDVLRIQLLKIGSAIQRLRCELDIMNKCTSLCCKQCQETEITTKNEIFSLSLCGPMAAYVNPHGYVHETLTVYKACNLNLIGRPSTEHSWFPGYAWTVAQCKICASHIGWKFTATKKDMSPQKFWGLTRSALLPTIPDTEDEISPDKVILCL
The target of assay [3] is T2, Protein cereblon/Interleukin-1 receptor-associated kinase 3 (Homo sapiens, UniProt Q9Y616+Q96SW2). Nature of the assay: Protac activity at CRBN/IRAK3 in human PBMC derived primary macrophages assessed as induction of IRAK3 degradation at 0.3 uM preincubated for 8 hrs followed by LPS-stimulation and measured after 8 to 32 hrs by Western blot analysis. It counts as tissue-based. Particulars: Primary macrophage.
Target sequence in this assay (Q96SW2 whole entry, looked up, one chain of several): as the sequence (Q96SW2 whole entry, looked up) above

In assay [4] the target is T2, Protein cereblon/Interleukin-1 receptor-associated kinase 3. Nature of the assay: Protac activity at CRBN/IRAK3 in LPS-induced human THP1 cells assessed as induction of IRAK3 degradation after 16 hrs by Western blot analysis relative to control. The assay is classed as cell-based. Conditions: THP-1. (In western blotting, separated proteins are transferred to a membrane and probed.)
Target sequence in this assay (Q96SW2 whole entry, looked up, one chain of several): as the sequence (Q96SW2 whole entry, looked up) above

Assay [5] has the same target. Nature of the assay: Protac activity at CRBN/IRAK3 in human THP1 cells assessed as induction of IRAK3 degradation at 0.1 uM measured after 6 hrs in presence of 10 uM thalidomide by Western blot analysis. The assay is classed as cell-based. Conditions: THP-1.
Target sequence in this assay (Q96SW2 whole entry, looked up, one chain of several): as the sequence (Q96SW2 whole entry, looked up) above
Assay [6] shares this target. Nature of the assay: Protac activity at CRBN/IRAK3 in human PBMC derived primary macrophages assessed as induction of IRAK3 degradation at 0.3 uM measured after 8 to 32 hrs by Western blot analysis. It counts as tissue-based. Particulars: Primary macrophage, time hrs 8-32.
Target sequence in this assay (Q96SW2 whole entry, looked up, one chain of several): as the sequence (Q96SW2 whole entry, looked up) above
Assay [7] deals with Interleukin-1 receptor-associated kinase 3 (Homo sapiens) (UniProt Q9Y616). Nature of the assay: Inhibition of IRAK3 (unknown origin) at 0.1 uM relative to control.
The subject of another assay is THP-1. Nature of the assay: Selectivity ratio of Kd(app) for displacement of polymer supported probe 25 binding to IRAK4 in human THP-1 cell lysates to Kd(app) for displacement of polymer supported probe 25 binding to IRAK3 in human THP-1 cell lysates.
Assay [8] concerns the target T1, Interleukin-1 receptor-associated kinase 4. Nature of the assay: Displacement of polymer supported probe 25 binding to IRAK4 in human THP-1 cell lysates preincubated for 45 mins under shaking condition followed by probe addition and measured after 30 mins by mass spectrometry based chemoproteomic analysis. Conditions: read-out: Kd(app). The assay is classed as subcellular.

The target of assay [9] is T3, Interleukin-1 receptor-associated kinase 3 (Homo sapiens, UniProt Q9Y616).
T3 sequence (Q9Y616 whole entry): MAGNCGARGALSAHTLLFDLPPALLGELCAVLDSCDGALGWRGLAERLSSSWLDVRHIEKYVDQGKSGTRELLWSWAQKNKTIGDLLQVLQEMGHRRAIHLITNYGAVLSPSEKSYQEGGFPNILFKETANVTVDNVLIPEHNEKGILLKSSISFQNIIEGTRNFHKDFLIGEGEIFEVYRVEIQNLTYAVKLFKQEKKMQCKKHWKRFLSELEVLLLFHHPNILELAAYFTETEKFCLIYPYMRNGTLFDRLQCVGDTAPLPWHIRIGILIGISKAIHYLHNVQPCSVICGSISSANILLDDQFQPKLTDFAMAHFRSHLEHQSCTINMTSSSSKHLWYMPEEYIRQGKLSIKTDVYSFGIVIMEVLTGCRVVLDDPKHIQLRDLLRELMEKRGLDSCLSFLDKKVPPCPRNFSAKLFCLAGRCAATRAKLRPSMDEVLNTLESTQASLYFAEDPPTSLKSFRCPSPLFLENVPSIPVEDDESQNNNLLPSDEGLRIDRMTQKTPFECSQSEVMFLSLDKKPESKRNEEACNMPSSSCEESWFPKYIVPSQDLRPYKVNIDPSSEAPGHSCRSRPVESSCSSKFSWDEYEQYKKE
Nature of the assay: Inhibition of kinase tracer 236 binding to recombinant human full-length GST-tagged IRAK3 expressed in insect cells by Lanthascreen Eu kinase binding assay.

The target in assay [10] is T3, Interleukin-1 receptor-associated kinase 3. Nature of the assay: Displacement of polymer supported probe 25 binding to IRAK3 in human THP-1 cell lysates preincubated for 45 mins under shaking condition followed by probe addition and measured after 30 mins by mass spectrometry based chemoproteomic analysis. It counts as subcellular. Conditions: read-out: Kd(app).
Assay [11] has as its target T2, Protein cereblon/Interleukin-1 receptor-associated kinase 3. Nature of the assay: Protac activity at CRBN/IRAK3 in human THP1 cells assessed as induction of IRAK3 degradation at 0.1 uM measured after 2 to 72 hrs by Western blot analysis. The assay is classed as cell-based. Particulars: THP-1, time hrs 2-72.
Target sequence in this assay (Q96SW2 whole entry, looked up, one chain of several): as the sequence (Q96SW2 whole entry, looked up) above
Assay [12] concerns the target Delta(24)-sterol reductase (Homo sapiens) (UniProt Q15392). Nature of the assay: Displacement of polymer supported probe 25 binding to DHCR24 in human THP-1 cell lysates at 30 uM preincubated for 45 mins under shaking condition followed by probe addition and measured after 30 mins by mass spectrometry based chemoproteomic analysis relative to control. It counts as subcellular.

The target of assay [13] is T2, Protein cereblon/Interleukin-1 receptor-associated kinase 3. Nature of the assay: Protac activity at CRBN/IRAK3 in LPS-induced human THP1 cells assessed as induction of IRAK3 degradation after 16 hrs by Western blot analysis. The assay is classed as cell-based. Conditions: thp-1.
Target sequence in this assay (Q96SW2 whole entry, one chain of several): as the sequence (Q96SW2 whole entry, looked up) above
The target is the same in assay [14]. Nature of the assay: Protac activity at CRBN/IRAK3 in human THP1 cells assessed as induction of IRAK3 degradation at 0.1 uM measured after 6 hrs in presence of proteasome inhibitor MG132 by Western blot analysis. Conditions: THP-1. The assay is classed as cell-based.
Target sequence in this assay (Q96SW2 whole entry, looked up, one chain of several): as the sequence (Q96SW2 whole entry, looked up) above
The target of assay [15] is Protein cereblon/Interleukin-1 receptor-associated kinase 1 (Homo sapiens) (UniProt P51617+Q96SW2). Nature of the assay: Protac activity at CRBN/IRAK1 in LPS-induced human THP1 cells assessed as induction of IRAK1 degradation at 0.1 uM measured after 6 hrs by HPLC-MS based global proteomic analysis. It counts as cell-based. Particulars: THP-1.
Protein cereblon/Interleukin-1 receptor-associated kinase 1 (Homo sapiens), sequence (P51617 whole entry, looked up): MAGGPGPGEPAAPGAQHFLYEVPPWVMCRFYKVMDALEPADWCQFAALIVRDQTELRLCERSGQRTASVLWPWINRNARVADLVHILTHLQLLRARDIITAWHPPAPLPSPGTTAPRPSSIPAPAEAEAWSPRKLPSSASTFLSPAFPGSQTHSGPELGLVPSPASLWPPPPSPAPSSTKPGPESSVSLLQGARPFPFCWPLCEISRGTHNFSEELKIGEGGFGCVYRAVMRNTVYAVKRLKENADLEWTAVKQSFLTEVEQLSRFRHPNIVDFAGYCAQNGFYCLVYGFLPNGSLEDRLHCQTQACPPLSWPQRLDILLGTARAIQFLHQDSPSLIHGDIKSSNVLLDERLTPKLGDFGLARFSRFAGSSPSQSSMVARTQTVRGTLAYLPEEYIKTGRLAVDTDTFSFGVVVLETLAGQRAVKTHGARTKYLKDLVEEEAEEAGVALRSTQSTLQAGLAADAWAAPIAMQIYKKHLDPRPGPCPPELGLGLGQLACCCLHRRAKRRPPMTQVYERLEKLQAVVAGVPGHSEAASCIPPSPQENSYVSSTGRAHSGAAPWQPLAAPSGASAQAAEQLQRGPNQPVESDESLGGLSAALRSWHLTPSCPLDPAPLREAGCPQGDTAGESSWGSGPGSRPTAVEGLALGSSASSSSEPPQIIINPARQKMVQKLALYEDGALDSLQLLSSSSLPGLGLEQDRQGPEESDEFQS
Protein cereblon/Interleukin-1 receptor-associated kinase 1 (Homo sapiens), sequence (Q96SW2 whole entry, looked up): as the sequence (Q96SW2 whole entry, looked up) above
Assay [16] concerns the target NT-3 growth factor receptor (Homo sapiens, UniProt Q16288). Nature of the assay: Inhibition of NTRK3 (unknown origin) at 0.1 uM relative to control.
Assay [17] has as its target Protein cereblon/Interleukin-1 receptor-associated kinase 4 (Homo sapiens) (UniProt Q9NWZ3+Q96SW2). Nature of the assay: Protac activity at CRBN/IRAK4 in LPS-induced human THP1 cells assessed as induction of IRAK4 degradation at 0.1 uM measured after 6 hrs by HPLC-MS based global proteomic analysis. It counts as cell-based. Conditions: THP-1.
In assay [18] the target is T2, Protein cereblon/Interleukin-1 receptor-associated kinase 3. Nature of the assay: Protac activity at CRBN/IRAK3 in human THP1 cells assessed as induction of IRAK3 degradation at 0.1 uM preincubated for 16 hrs followed by compound washout and measured after 24 hrs by Western blot analysis. Conditions: THP-1. The assay is classed as cell-based.

Consider one compound from ChEMBL document CHEMBL4725370, “Discovery of Proteolysis-Targeting Chimera Molecules that Selectively Degrade the IRAK3 Pseudokinase” (J Med Chem, 2020).

Calls of active or inactive are those of the source. The rule behind the calls is not given here. Where only a bound is given, the exact number is not on record here.

NT-3 growth factor receptor, sequence (Q16288 32-839 limits assumed): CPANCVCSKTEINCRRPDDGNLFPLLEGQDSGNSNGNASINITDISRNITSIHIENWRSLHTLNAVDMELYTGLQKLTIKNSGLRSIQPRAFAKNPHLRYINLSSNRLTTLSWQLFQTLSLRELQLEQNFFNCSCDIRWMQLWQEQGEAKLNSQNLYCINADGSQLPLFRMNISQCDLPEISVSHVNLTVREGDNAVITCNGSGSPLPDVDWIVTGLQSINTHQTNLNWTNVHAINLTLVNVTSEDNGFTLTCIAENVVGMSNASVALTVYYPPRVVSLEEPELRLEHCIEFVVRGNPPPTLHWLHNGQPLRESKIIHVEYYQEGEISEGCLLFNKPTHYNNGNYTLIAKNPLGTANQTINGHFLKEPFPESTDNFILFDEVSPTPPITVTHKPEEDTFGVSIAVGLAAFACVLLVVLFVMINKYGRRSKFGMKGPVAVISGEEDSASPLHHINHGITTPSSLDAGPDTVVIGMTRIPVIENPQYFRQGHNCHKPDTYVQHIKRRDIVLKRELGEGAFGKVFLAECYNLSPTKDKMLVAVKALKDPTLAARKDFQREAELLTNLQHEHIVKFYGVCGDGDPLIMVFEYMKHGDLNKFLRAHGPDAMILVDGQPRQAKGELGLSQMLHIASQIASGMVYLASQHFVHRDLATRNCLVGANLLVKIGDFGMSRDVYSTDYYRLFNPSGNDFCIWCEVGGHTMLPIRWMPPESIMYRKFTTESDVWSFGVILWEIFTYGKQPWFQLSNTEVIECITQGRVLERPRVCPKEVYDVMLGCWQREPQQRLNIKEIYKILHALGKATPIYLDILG
Delta(24)-sterol reductase (Homo sapiens), sequence (Q15392 whole entry): as the sequence (Q15392 whole entry, looked up) above
Protein cereblon/Interleukin-1 receptor-associated kinase 4 (Homo sapiens), sequence (Q96SW2 whole entry, looked up, one chain of several): as the sequence (Q96SW2 whole entry, looked up) above

In the case of `CC(C)c1ccn2ncnc(N[C@H]3CC[C@@H](N4CCN(C(=O)CCC(=O)N5CCC(CCN6CCN(c7ccc8c(c7)C(=O)N(C7CCC(=O)NC7=O)C8=O)CC6)CC5)CC4)CC3)c12` (some centres undefined), the IC50 in [1] was determined as 1.4 µM; in assay [9] it was 0.005 µM. The fold change (FC) in assay [2] was -1.5. The result in [3], in [6] and in assay [11] was Active. In assay [4], the Emax is 98%. For the same compound, the outcome in assay [5], in assay [14], in assay [15], in assay [17] and in assay [18] was inactive. The figures for the inhibition in [7], in [12] and in assay [16] were 93%, below 40% and 60%, respectively. The Selectivity ratio with THP-1 was 105. In addition, the Kd in [8] worked out at 3.6 µM; in [10] it was 0.034 µM. Moreover, in [13], the DC50 stood at 0.002 µM.

A word on the IC50: it is the concentration that gives 50% inhibition. Broadly, the Emax is the size of the effect at its maximum, as opposed to the concentration needed. As a reminder, the inhibition is the share of the control response that was lost under treatment. As a reminder, the DC50 is the concentration giving 50% degradation.
